Test system: 349418-098-R-PDC complex spheroid viability
Assay: Anticancer human tumor 349418-098-R-PDC patient-derived lung adenocarcinoma cell line growth inhibition [RAS]
Conditions: for IC50: curve of first compound; for viability, T/C: stronger effect = lower value
Summary of the method: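 Tumour cells grown as complex spheroids with HUVEC endothelial cells and mesenchymal stem cells, treated with RAS pathway inhibitor combinations. Each agent spans half-log steps from near clinical Cmax, or 10 microM where Cmax is unknown.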
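Note: spheroids exposed to compound for seven days before viability readout.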

C=CC(=O)Nc1cc(Nc2nccc(-c3cn(C)c4ccccc34)n2)c(OC)cc1N(C)CCN(C)C + CCn1c(-c2cc(N3CCN(C)CC3)cnc2C(C)OC)c2c3cc(ccc31)-c1csc(n1)CC(NC(=O)C1CC1C)C(=O)N1CCCC(N1)C(=O)OCC(C)(C)C2
IC50 (second compound 0.000949 µM): > 1000 nM | IC50 (second compound 0.003 µM): > 1000 nM | IC50 (second compound 0.00949 µM): > 1000 nM | IC50 (second compound 0.03 µM): > 1000 nM | IC50 (second compound 0.0949 µM): > 1000 nM | IC50 (second compound 0.3 µM): > 1000 nM | viability, T/C (second compound 0.000949 µM, first compound 0.00316 µM): 101% | viability, T/C (second compound 0.000949 µM, first compound 0.01 µM): 94.8% | viability, T/C (second compound 0.000949 µM, first compound 0.0316 µM): 112% | viability, T/C (second compound 0.000949 µM, first compound 0.1 µM): 109% | viability, T/C (second compound 0.000949 µM, first compound 0.316 µM): 96.8% | viability, T/C (second compound 0.000949 µM, first compound 1 µM): 76% | viability, T/C (second compound 0.003 µM, first compound 0.00316 µM): 112% | viability, T/C (second compound 0.003 µM, first compound 0.01 µM): 95.8% | viability, T/C (second compound 0.003 µM, first compound 0.0316 µM): 94.4% | viability, T/C (second compound 0.003 µM, first compound 0.1 µM): 98.7% | viability, T/C (second compound 0.003 µM, first compound 0.316 µM): 95% | viability, T/C (second compound 0.003 µM, first compound 1 µM): 70.3% | viability, T/C (second compound 0.00949 µM, first compound 0.00316 µM): 100% | viability, T/C (second compound 0.00949 µM, first compound 0.01 µM): 88.5% | viability, T/C (second compound 0.00949 µM, first compound 0.0316 µM): 94.8% | viability, T/C (second compound 0.00949 µM, first compound 0.1 µM): 75.8% | viability, T/C (second compound 0.00949 µM, first compound 0.316 µM): 98.6% | viability, T/C (second compound 0.00949 µM, first compound 1 µM): 75.7% | viability, T/C (second compound 0.03 µM, first compound 0.00316 µM): 100% | viability, T/C (second compound 0.03 µM, first compound 0.01 µM): 107% | viability, T/C (second compound 0.03 µM, first compound 0.0316 µM): 107% | viability, T/C (second compound 0.03 µM, first compound 0.1 µM): 102% | viability, T/C (second compound 0.03 µM, first compound 0.316 µM): 92.1% | viability, T/C (second compound 0.03 µM, first compound 1 µM): 65.3% | viability, T/C (second compound 0.0949 µM, first compound 0.00316 µM): 105% | viability, T/C (second compound 0.0949 µM, first compound 0.01 µM): 101% | viability, T/C (second compound 0.0949 µM, first compound 0.0316 µM): 97.8% | viability, T/C (second compound 0.0949 µM, first compound 0.1 µM): 105% | viability, T/C (second compound 0.0949 µM, first compound 0.316 µM): 86.7% | viability, T/C (second compound 0.0949 µM, first compound 1 µM): 72.8% | viability, T/C (second compound 0.3 µM, first compound 0.00316 µM): 98.1% | viability, T/C (second compound 0.3 µM, first compound 0.01 µM): 101% | viability, T/C (second compound 0.3 µM, first compound 0.0316 µM): 108% | viability, T/C (second compound 0.3 µM, first compound 0.1 µM): 102% | viability, T/C (second compound 0.3 µM, first compound 0.316 µM): 109% | viability, T/C (second compound 0.3 µM, first compound 1 µM): 77.6%

Reference: PubChem BioAssay AID2060904 (Molecular Pharmacology Branch, DTP, NCI, 2025)
